Reference: patent publication EP4692061A1, “LOW-MOLECULAR-WEIGHT COMPOUND HAVING CEREBLON-BINDING ACTIVITY, AND USE THEREOF” (Aevis Bio, Inc., priority 2023, dated 2024)

These compounds were tested against cereblon (CRBN) (Homo sapiens, UniProt Q96SW2) (assay: In vitro CRBN binding assay (AlphaScreen, competitive inhibition of the PROTAC assay)). Settings: not given.

Row | SMILES | IC50 [nM]
1 | O=C1CCC(c2ccc3c(c2)CCNC3=O)C(=O)N1 (stereo not shown) [AEV40041] | 760

Same assay, conditions: Table 1; AlphaScreen, PROTAC Optimization Kit for BET Bromodomain-Cereblon Binding; read-out: Alpha IC50

Row | SMILES | IC50 [nM]
2 | O=C1CCC(c2cccc(NC(=O)c3cc(-c4ccccc4)ccc3Cl)c2)C(=O)N1 (stereo not shown) [AEV40222] | 1720
3 | O=C1CCC(c2cccc(NS(=O)(=O)c3cccc(Cl)c3Cl)c2)C(=O)N1 (stereo not shown) [AEV40058] | 680
4 | O=C1CCC(c2cccc(NC(=O)c3ccccc3)c2)C(=O)N1 (stereo not shown) [AEV40088] | 2190
5 | O=C1CCC(c2cccc(NC(=O)c3c(Cl)cc(Cl)cc3Cl)c2)C(=O)N1 (stereo not shown) [AEV40138] | 800
6 | CCc1ccc(S(=O)(=O)Nc2cccc(C3CCC(=O)NC3=O)c2)cc1 (stereo not shown) [AEV40046] | 1000
7 | O=C1CCC(c2cccc(NC(=O)Nc3ccccc3)c2)C(=O)N1 (stereo not shown) [AEV40129] | 370
8 | O=C1CCC(c2cccc(NS(=O)(=O)c3cccc(NC(=O)C4CCOCC4)c3)c2)C(=O)N1 (stereo not shown) [AEV40225] | 12100
9 | Cc1ccc(CNc2cccc(C3CCC(=O)NC3=O)c2)cc1F (stereo not shown) [AEV40095] | 1580
10 | COc1cc(Cl)ccc1C(=O)Nc1cccc(C2CCC(=O)NC2=O)c1 (stereo not shown) [AEV40148] | 1120
11 | O=C1CCC(c2cccc(NS(=O)(=O)c3cccc(NC(=O)c4ccc(Cl)c(Cl)c4)c3)c2)C(=O)N1 (stereo not shown) [AEV40142] | 980
12 | O=C1CCC(c2cccc(NCc3ccc(Cl)cc3)c2)C(=O)N1 (stereo not shown) [AEV40090] | 2140
13 | O=C1CCC(c2cccc(NCc3ccccc3)c2)C(=O)N1 (stereo not shown) [AEV40087] | 1150
14 | O=C1CCC(c2cccc(NS(=O)(=O)c3cccc(NC(=O)c4ccccc4)c3)c2)C(=O)N1 (stereo not shown) [AEV40143] | 610
15 | O=C1CCC(c2cccc(NS(=O)(=O)c3ccccc3Cl)c2)C(=O)N1 (stereo not shown) [AEV40057] | 590
16 | COC(=O)CCc1cccc(Nc2cccc(C3CCC(=O)NC3=O)c2)c1 (stereo not shown) [AEV40184] | 1410
17 | O=C1CCC(c2cccc(NS(=O)(=O)c3ccc(Cl)cc3Cl)c2)C(=O)N1 (stereo not shown) [AEV40054] | 200
18 | CC(C)(C)OC(=O)NCc1cccc(Nc2cccc(C3CCC(=O)NC3=O)c2)c1 (stereo not shown) [AEV40186] | 2630
19 | O=C1CCC(c2cccc(Nc3cccc(CCC(=O)Nc4cc(-c5ccccc5)[nH]n4)c3)c2)C(=O)N1 (stereo not shown) [AEV40209] | 910
20 | O=C1CCC(c2cccc(NCc3ccc(C(F)(F)F)cc3)c2)C(=O)N1 (stereo not shown) [AEV40104] | 1720
21 | O=C1CCC(c2cccc(NS(=O)(=O)c3ccc(Cl)cc3)c2)C(=O)N1 (stereo not shown) [AEV40037] | 860
22 | O=C1CCC(c2ccc3oc(N4CCCCC4)nc3c2)C(=O)N1 (stereo not shown) [AEV40208] | 3540

Row | SMILES | IC50 [nM]
23 | Nc1cccc(C2CCC(=O)NC2=O)c1 (stereo not shown) [AEV40029] | 2960
24 | Cc1ccccc1C(=O)Nc1cccc(C2CCC(=O)NC2=O)c1 (stereo not shown) [AEV40146] | 1100
25 | CC1(C(=O)Nc2cccc(N3CCOc4cc(C5CCC(=O)NC5=O)ccc4C3=O)c2)CC1 (stereo not shown) [AEV40212] | 2300
26 | O=C1CCC(c2cccc(NC(=O)c3ccccc3C(F)(F)F)c2)C(=O)N1 (stereo not shown) [AEV40180] | 1130
27 | O=C1CCC(c2cccc(NC(=O)c3cc(Cl)ccc3Cl)c2)C(=O)N1 (stereo not shown) [AEV40178] | 920
28 | Cc1ccc([N+](=O)[O-])cc1S(=O)(=O)Nc1cccc(C2CCC(=O)NC2=O)c1 (stereo not shown) [AEV40060] | 1520
29 | O=C1CCC(c2cccc(NS(=O)(=O)c3ccc(C(F)(F)F)cc3)c2)C(=O)N1 (stereo not shown) [AEV40100] | 1390
30 | O=C1CCC(c2ccc3c(c2)OCCN(c2cccc(NC(=O)c4ccc(Cl)cc4Cl)c2)C3=O)C(=O)N1 (stereo not shown) [AEV40217] | 1180
31 | CN1CCN(c2ccc(NC(=O)CCc3cccc(Nc4cccc(C5CCC(=O)NC5=O)c4)c3)cc2)CC1 (stereo not shown) [AEV40196] | 1230
32 | Cc1c(Cl)cccc1S(=O)(=O)Nc1cccc(C2CCC(=O)NC2=O)c1 (stereo not shown) [AEV40043] | 910
33 | O=C1CCC(c2cccc(NCc3cccc4ccccc34)c2)C(=O)N1 (stereo not shown) [AEV40120] | 1410
34 | CCCc1ccc(S(=O)(=O)Nc2cccc(C3CCC(=O)NC3=O)c2)cc1 (stereo not shown) [AEV40047] | 1500
35 | CC1CCC(C(=O)Nc2cccc(N3CCOc4cc(C5CCC(=O)NC5=O)ccc4C3=O)c2)CC1 (stereo not shown) [AEV40213] | 2110
36 | CCOC(=O)/C=C/c1cc(C)ccc1C1CCC(=O)NC1=O (stereo not shown) [AEV40160] | 2920
37 | O=C1CCC(c2cccc(NC(=O)c3cccc(-c4ccccc4)c3)c2)C(=O)N1 (stereo not shown) [AEV40162] | 2150
38 | Cc1ccc(CNc2cccc(C3CCC(=O)NC3=O)c2)cc1 (stereo not shown) [AEV40102] | 1240
39 | O=C1CCC(c2cccc(Nc3cccc(NC(=O)C4(C(=O)Nc5ccc(F)cc5)CC4)c3)c2)C(=O)N1 (stereo not shown) [AEV40219] | 2210
40 | Cc1ccc(CNc2cccc(C3CCC(=O)NC3=O)c2)s1 (stereo not shown) [AEV40092] | 970
41 | COc1ccc(CN2CCOc3ccc(C4CCC(=O)NC4=O)cc3C2=O)cc1 (stereo not shown) [AEV40036] | 1130
42 | O=C1CCC(c2ccc3c(c2)OCCN(Cc2ccccc2)C3=O)C(=O)N1 (stereo not shown) [AEV40086] | 4140
43 | O=C1CCC(c2cccc(NC(=O)c3cccc(Cl)c3Cl)c2)C(=O)N1 (stereo not shown) [AEV40134] | 1130

Row | SMILES | IC50 [nM]
44 | Nc1ccccc1S(=O)(=O)Nc1cccc(C2CCC(=O)NC2=O)c1 (stereo not shown) [AEV40074] | 270
45 | COc1cc(Cl)ccc1CNc1cccc(C2CCC(=O)NC2=O)c1 (stereo not shown) [AEV40096] | 990
46 | O=C1CCC(c2cccc(NC(=O)c3ccc4ccccc4n3)c2)C(=O)N1 (stereo not shown) [AEV40187] | 830
47 | O=C1CCC(c2cccc(NS(=O)(=O)c3ccc4oc(=O)ccc4c3)c2)C(=O)N1 (stereo not shown) [AEV40071] | 220
48 | CS(=O)(=O)Nc1cccc(C2CCC(=O)NC2=O)c1 (stereo not shown) [AEV40030] | 7060
49 | O=C1CCC(c2cccc(NCc3cc(F)c(F)c(F)c3)c2)C(=O)N1 (stereo not shown) [AEV40110] | 1960
50 | COC(=O)C1CC2(CC(NC(=O)CCc3cccc(Nc4cccc(C5CCC(=O)NC5=O)c4)c3)C2)C1 (stereo not shown) [AEV40210] | 1220
51 | CCCCCCOc1ccc(NC(=O)CCc2cccc(Nc3cccc(C4CCC(=O)NC4=O)c3)c2)cc1 (stereo not shown) [AEV40199] | 3470
52 | O=C1CCC(c2cccc(NC(=O)c3n[nH]cc3Cl)c2)C(=O)N1 (stereo not shown) [AEV40183] | 1050
53 | O=C1CCC(c2ccc3oc(N4CCOCC4)nc3c2)C(=O)N1 (stereo not shown) [AEV40207] | 4570
54 | O=C1CCC(c2cccc(NS(=O)(=O)c3ccccc3C(F)(F)F)c2)C(=O)N1 (stereo not shown) [AEV40070] | 1050
55 | O=C1CCC(c2cccc(NS(=O)(=O)c3ccccc3)c2)C(=O)N1 (stereo not shown) [AEV40025] | 1860
56 | O=C1CCC(c2ccc3c(c2)CN(S(=O)(=O)c2ccc(Cl)cc2)C3=O)C(=O)N1 (stereo not shown) [AEV40077] | 55300
57 | O=C1CCC(c2cccc(NS(=O)(=O)c3ccc([N+](=O)[O-])cc3)c2)C(=O)N1 (stereo not shown) [AEV40055] | 200
58 | O=C1CCC(c2cccc(NS(=O)(=O)c3ccc(Cl)cc3F)c2)C(=O)N1 (stereo not shown) [AEV40044] | 230
59 | COc1ccccc1C(=O)Nc1cccc(S(=O)(=O)Nc2cccc(C3CCC(=O)NC3=O)c2)c1 (stereo not shown) [AEV40151] | 340
60 | O=C1CCC(c2cccc(O)c2)C(=O)N1 (stereo not shown) [AEV40089] | 1140
61 | O=C1CCC(c2cccc(NS(=O)(=O)c3cccc(NC(=O)c4cc(F)c(F)cc4F)c3)c2)C(=O)N1 (stereo not shown) [AEV40153] | 800
62 | CCCCc1ccc(C(=O)Nc2cccc(N3CCOc4cc(C5CCC(=O)NC5=O)ccc4C3=O)c2)cc1 (stereo not shown) [AEV40214] | 820
63 | O=C1CCC(c2cccc(NS(=O)(=O)c3ccccc3[N+](=O)[O-])c2)C(=O)N1 (stereo not shown) [AEV40061] | 590

Same assay, conditions: read-out: Alpha IC50; Table 1; AlphaScreen, PROTAC Optimization Kit for BET Bromodomain-Cereblon Binding

Row | SMILES | IC50 [nM]
64 | Cc1cccc(S(=O)(=O)Nc2cccc(C3CCC(=O)NC3=O)c2)c1 (stereo not shown) [AEV40069] | 710
